Measured values published in PMC4689619 (Organic & biomolecular chemistry, 2016).
Read-outs that look alike come from different tables or passages of the source.

Tests used:
[1] = molecular target: oncogenic mutant K-Ras (mGFP-K-Ras G12V) (Homo sapiens, UniProt P01116, G12V); type: cell-based, canine; conditions: MDCK cells stably expressing mGFP-KRasG12V and mCherry-CAAX, 48 h; for IC50: read-out: IC50 (concentration needed for 50% PM mislocalisation)
SW620 cells = assay: resazurin cell viability assay, SW620; type: cell-based, human
SW620 Ad300 cells = assay: cells; type: cell-based, human
P-glycoprotein (P-gp) = P-glycoprotein (P-gp) (Homo sapiens, UniProt P08183); assay: calcein AM flow cytometry assay in P-gp over-expressing SW620 Ad300 cells; conditions: 20 μM
[2] = read-out: SW620 IC50, colon cancer cell line SW620, resazurin
[3] = read-out: SW620 Ad300 IC50, P-gp over-expressing SW620 Ad300, resazurin

P-glycoprotein (P-gp), sequence (P08183 whole entry): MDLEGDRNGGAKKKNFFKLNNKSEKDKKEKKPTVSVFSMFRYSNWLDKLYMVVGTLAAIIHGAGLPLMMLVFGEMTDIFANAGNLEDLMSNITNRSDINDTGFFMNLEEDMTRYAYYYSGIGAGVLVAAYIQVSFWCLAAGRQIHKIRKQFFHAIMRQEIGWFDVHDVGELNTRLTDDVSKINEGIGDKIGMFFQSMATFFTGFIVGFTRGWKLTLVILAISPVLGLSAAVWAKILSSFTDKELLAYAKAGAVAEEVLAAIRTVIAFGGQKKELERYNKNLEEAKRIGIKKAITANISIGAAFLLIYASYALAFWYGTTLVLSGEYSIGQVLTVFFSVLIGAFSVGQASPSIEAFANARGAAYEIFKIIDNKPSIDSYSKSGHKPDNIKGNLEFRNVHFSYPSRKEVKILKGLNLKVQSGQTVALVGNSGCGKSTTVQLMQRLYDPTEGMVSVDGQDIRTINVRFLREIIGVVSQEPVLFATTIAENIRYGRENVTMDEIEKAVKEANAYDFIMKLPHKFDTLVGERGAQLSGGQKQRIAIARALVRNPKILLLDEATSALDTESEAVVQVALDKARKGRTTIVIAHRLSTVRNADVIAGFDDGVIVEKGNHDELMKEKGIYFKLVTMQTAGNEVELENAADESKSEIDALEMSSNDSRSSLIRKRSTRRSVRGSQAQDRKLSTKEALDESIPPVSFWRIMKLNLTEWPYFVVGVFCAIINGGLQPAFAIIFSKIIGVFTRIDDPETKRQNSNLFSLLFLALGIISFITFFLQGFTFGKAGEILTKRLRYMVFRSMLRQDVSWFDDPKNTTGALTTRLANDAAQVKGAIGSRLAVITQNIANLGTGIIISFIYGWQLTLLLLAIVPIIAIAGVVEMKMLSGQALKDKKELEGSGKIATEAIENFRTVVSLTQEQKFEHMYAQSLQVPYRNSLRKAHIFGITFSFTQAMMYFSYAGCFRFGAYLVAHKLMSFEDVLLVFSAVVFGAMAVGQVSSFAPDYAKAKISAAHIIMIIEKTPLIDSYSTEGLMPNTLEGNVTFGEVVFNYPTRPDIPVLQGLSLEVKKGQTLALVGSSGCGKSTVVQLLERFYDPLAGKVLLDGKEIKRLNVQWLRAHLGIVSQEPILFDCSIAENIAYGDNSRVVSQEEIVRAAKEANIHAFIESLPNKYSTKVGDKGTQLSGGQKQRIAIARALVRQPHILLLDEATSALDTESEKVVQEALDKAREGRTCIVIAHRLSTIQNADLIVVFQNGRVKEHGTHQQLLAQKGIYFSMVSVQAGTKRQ

Molecule: CC[C@H]1/C=C/C=C/C[C@@H](C)[C@H](O)[C@@](C)(O)C(=O)[C@@H](C)[C@H](O)[C@@H](C)C(=O)[C@@H](C)[C@H](O)[C@@H](C)/C=C/C(=O)O[C@@H]2[C@H](C)[C@H](CC1)O[C@@]1(O[C@@H](C[C@@H](C)O)[C@@H](C)CC1=O)[C@H]2C [compound 2, oligomycin B]
- Emax (highest Manders coefficient, maximum extent of K-Ras PM mislocalisation) [1]: 0.67 ± 0.02
- IC50 [1]: 0.00351 ± 0.00016 µM
- IC50 (SW620 cells; [2]): 17 ± 0.6 µM
- FR (fold resistance, ratio IC50 SW620Ad300 / IC50 SW620) (SW620 Ad300 cells): 0.76
- IC50 (SW620 Ad300 cells; [3]): 12.9 ± 1.3 µM

Molecule: CC[C@@H]1C=CC=CC[C@H](C)[C@@H](O)[C@@H](C)C(=O)[C@H](C)[C@@H](O)[C@H](C)C(=O)[C@H](C)[C@@H](O)[C@H](C)C=CC(=O)O[C@H]2[C@@H](C)[C@@H](CC1)O[C@@]1(CC[C@@H](C)[C@@H](C[C@H](C)O)O1)[C@@H]2C [compound 3, oligomycin C]
- Emax (highest Manders coefficient, maximum extent of K-Ras PM mislocalisation) [1]: 0.72 ± 0.03
- IC50 (SW620 cells; Homo sapiens, SW-620, read-out: SW620 IC50): 19.8 ± 1.2 µM
- FR (fold resistance, ratio IC50 SW620Ad300 / IC50 SW620) (SW620 Ad300 cells): 1.1
- IC50 (SW620 Ad300 cells; Homo sapiens, SW620/AD300, read-out: SW620 Ad300 IC50): 22.5 ± 3.8 µM

Molecule: CC[C@H]1/C=C/C=C/C[C@@H](C)[C@H](O)[C@@](C)(O)C(=O)[C@@H](C)[C@H](O)[C@@H](C)C(=O)[C@@H](C)[C@H](O)[C@@H](C)/C=C/C(=O)O[C@H]2C[C@@]3(CC[C@H](C)[C@H](C[C@@H](C)O)O3)O[C@@H](CC1)[C@H]2C [compound 4, oligomycin D]
- Emax (highest Manders coefficient, maximum extent of K-Ras PM mislocalisation) [1]: 0.72 ± 0.01
- IC50 [1]: 0.00349 ± 8e-05 µM
- IC50 (SW620 cells; [2]): 36 ± 2.3 µM
- FR (fold resistance, ratio IC50 SW620Ad300 / IC50 SW620) (SW620 Ad300 cells): 0.35
- IC50 (SW620 Ad300 cells; [3]): 12.9 ± 1 µM

Molecule: CC[C@H]1/C=C/C=C/C[C@@H](C)[C@H](O)[C@@](C)(O)C(=O)[C@@H](C)[C@H](O)[C@@H](C)C(=O)[C@@H](C)[C@H](O)[C@@H](C)/C=C/C(=O)O[C@@H]2[C@H](C)[C@H](CC1)O[C@@]1(O[C@@H](C[C@@H](C)O)[C@@H](C)CC1=O)[C@]2(C)O [compound 5, oligomycin E]
- Emax (highest Manders coefficient, maximum extent of K-Ras PM mislocalisation) [1]: 0.73 ± 0.06
- IC50 [1]: 0.0049 ± 0.00064 µM
- IC50 (SW620 cells; [2]): 7.1 ± 0.4 µM
- FR (fold resistance, ratio IC50 SW620Ad300 / IC50 SW620) (SW620 Ad300 cells): 0.56
- IC50 (SW620 Ad300 cells; [3]): 4 ± 0.8 µM
- FAR (fluorescence arbitrary ratio), calcein fluorescence intensity vs PBS (P-glycoprotein (P-gp)): 48.2

Molecule: CC[C@H]1/C=C/C=C/C[C@@H](C)[C@H](O)[C@@](C)(O)C(=O)[C@@H](C)[C@H](O)[C@@H](C)C(=O)[C@@H](C)[C@H](O)[C@@H](C)/C=C/C(=O)O[C@@H]2[C@H](C)[C@H](C[C@H]1O)O[C@]1(CC[C@H](C)[C@H](C[C@@H](C)O)O1)[C@H]2C [compound 6, 21-hydroxy-oligomycin A]
- Emax (highest Manders coefficient, maximum extent of K-Ras PM mislocalisation) [1]: 0.76 ± 0.04
- IC50 [1]: 0.00482 ± 0.0007 µM
- IC50 (SW620 cells; [2]): 14.4 ± 0.6 µM
- FR (fold resistance, ratio IC50 SW620Ad300 / IC50 SW620) (SW620 Ad300 cells): 0.82
- IC50 (SW620 Ad300 cells; [3]): 11.8 ± 3.1 µM

Molecule: CC[C@H]1/C=C/C=C/C[C@@H](C)[C@H](O)[C@H](C)C(=O)[C@@H](C)[C@H](O)[C@@H](C)C(=O)[C@@H](C)[C@H](O)[C@@H](C)/C=C/C(=O)O[C@@H]2[C@H](C)[C@H](C[C@H]1O)O[C@]1(CC[C@H](C)[C@H](C[C@@H](C)O)O1)[C@H]2C [compound 7, 21-hydroxy-oligomycin C]
- Emax (highest Manders coefficient, maximum extent of K-Ras PM mislocalisation) [1]: 0.68 ± 0.01
- IC50 [1]: 0.0141 ± 0.00024 µM
- IC50 (SW620 cells; [2]): 5.7 ± 0.9 µM
- FR (fold resistance, ratio IC50 SW620Ad300 / IC50 SW620) (SW620 Ad300 cells): 0.54
- IC50 (SW620 Ad300 cells; [3]): 3.1 ± 0.2 µM

Molecule: CC[C@H]1/C=C/C=C/C[C@@H](CO)[C@H](O)[C@@](C)(O)C(=O)[C@@H](C)[C@H](O)[C@@H](C)C(=O)[C@@H](C)[C@H](O)[C@@H](C)/C=C/C(=O)O[C@@H]2[C@H](C)[C@H](CC1)O[C@@]1(O[C@@H](C[C@@H](C)O)[C@@H](C)CC1=O)[C@H]2C [compound 8, 40-hydroxy-oligomycin B]
- Emax (highest Manders coefficient, maximum extent of K-Ras PM mislocalisation) [1]: 0.73 ± 0.05
- IC50 [1]: 0.00591 ± 0.00162 µM
- IC50 (SW620 cells; [2]): 13.6 ± 0.4 µM
- FR (fold resistance, ratio IC50 SW620Ad300 / IC50 SW620) (SW620 Ad300 cells): 1.2
- IC50 (SW620 Ad300 cells; [3]): 16.4 ± 1.5 µM

Molecule: COc1cccc2c1C(=O)c1c(O)c3c(c(O)c1C2=O)C[C@@](O)(C(=O)CO)C[C@@H]3O[C@H]1C[C@H](N)[C@H](O)[C@H](C)O1 [doxorubicin, reference compound]
- FR (fold resistance, ratio IC50 SW620Ad300 / IC50 SW620) (SW620 Ad300 cells): 22
- FR (fold resistance) with co-administration of verapamil (SW620 Ad300 cells; co-administration of P-gp inhibitor verapamil): 2.4

Molecule: oligomycin A [compound 1]
- Emax (highest Manders coefficient, maximum extent of K-Ras PM mislocalisation) [1]: 0.75 ± 0.02
- IC50 (SW620 cells; [2]): 14.6 ± 2.5 µM
- FR (fold resistance, ratio IC50 SW620Ad300 / IC50 SW620) (SW620 Ad300 cells): 0.27
- IC50 (SW620 Ad300 cells; [3]): 4 ± 1.1 µM
